Experimental data reported in ChEMBL document CHEMBL1140951, “2-Acetylpyridine thiosemicarbazones are potent iron chelators and antiproliferative agents: redox activity, iron complexation and characterization of their antitumor activity” (J Med Chem, 2009).

How the values were obtained:
[1] = Octanol-water partition coefficient, log P of the compound; type: physicochemical
[2] = target: Serotransferrin (Homo sapiens) (UniProt P02787); test: Induction of iron removal from 59Fe]transferrin assessed as iron release after 3 hrs relative to control; design: concentration or dose not given beside the values
Serotransferrin (Homo sapiens), sequence (P02787 whole entry): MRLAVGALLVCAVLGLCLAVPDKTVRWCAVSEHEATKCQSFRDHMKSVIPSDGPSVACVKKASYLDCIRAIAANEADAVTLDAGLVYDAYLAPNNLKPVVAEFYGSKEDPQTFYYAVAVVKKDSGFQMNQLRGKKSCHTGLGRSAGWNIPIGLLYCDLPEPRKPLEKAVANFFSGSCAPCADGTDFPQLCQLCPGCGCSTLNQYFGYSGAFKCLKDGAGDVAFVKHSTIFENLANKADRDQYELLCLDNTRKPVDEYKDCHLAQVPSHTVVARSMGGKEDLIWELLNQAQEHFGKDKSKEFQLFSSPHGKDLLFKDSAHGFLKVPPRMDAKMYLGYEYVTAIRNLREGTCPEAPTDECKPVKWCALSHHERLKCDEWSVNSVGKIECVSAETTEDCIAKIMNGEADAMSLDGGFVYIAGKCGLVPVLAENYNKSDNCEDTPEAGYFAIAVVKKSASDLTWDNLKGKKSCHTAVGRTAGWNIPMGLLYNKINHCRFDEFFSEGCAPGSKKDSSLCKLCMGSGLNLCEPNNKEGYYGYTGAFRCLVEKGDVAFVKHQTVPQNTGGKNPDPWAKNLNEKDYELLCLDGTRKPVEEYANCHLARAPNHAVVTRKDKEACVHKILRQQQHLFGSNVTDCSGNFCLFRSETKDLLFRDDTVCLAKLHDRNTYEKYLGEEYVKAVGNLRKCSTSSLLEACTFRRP

[3] = tested on: SK-N-MC; test: cells; details: Homo sapiens, 72 h
Description: Antiproliferative activity against human SK-N-MC cells after 72 hrs by MTT assay

[4] = target: Serotransferrin (Homo sapiens) (UniProt P02787); test: Reduction of cellular iron uptake from 59Fe]transferrin in human SK-N-MC cells at 25 uM after 3 hrs relative to control; type: cell-based; design: scale not given: the % may be the effect or the level left
[5] = tested on: SK-N-MC; test: Induction of iron mobilization in 59Fe]transferrin labeled human SK-N-MC cells assessed as iron release at 25 uM after 3 hrs by gamma scintillation counter; type: functional
[6] = tested on: SK-N-MC; test: Cytotoxicity against 59Fe]transferrin prelabeled human SK-N-MC cells assessed as cell viability at 25 uM after 3 hrs; type: cell-based

SMILES | logP [1] | Activity [2] [%] | IC50 [3] [nM] | Activity [4] [%] | Activity [5] [%] | Activity [6]
C/C(=N\NC(=S)N(C)C)c1ccccn1 | 1.8 | 2.7 | 1 | 4 | – | –
C/C(=N\NC(N)=S)c1ccccn1 | 1.52 | 1 | 3530 | 4 | – | –
CCNC(=S)N/N=C(\C)c1ccccn1 | 1.52 | 2.1 | 2 | 4 | – | –
Cc1c(O)c(=O)ccn1C | – | 20 | – | – | – | –
Cc1ncc(CO)c(/C=N/NC(=O)c2ccncc2)c1O [PYRIDOXAL ISONICOTINOYL HYDRAZONE] | – | – | – | 11 | 37 | –
NC(=S)NN=C(c1ccccn1)c1ccccn1 | – | 1.6 | – | – | – | –
C=CCNC(=S)N/N=C(\C)c1ccccn1 | 1.76 | 1.7 | 1 | 4 | – | –
CN(C)C(=S)NN=C(c1ccccn1)c1ccccn1 | – | 2.9 | – | 7 | 27 | –
CC(=O)N(O)CCCCCNC(=O)CCC(=O)N(O)CCCCCNC(=O)CCC(=O)N(O)CCCCCN [DEFEROXAMINE] | – | 14.2 | 7350 | 83 | 13 | –
CNC(=S)N/N=C(\C)c1ccccn1 | 2.7 | 1.8 | 11 | 4 | – | –
NC(=S)N/N=C(\c1ccccc1)c1ccccn1 | – | 2 | – | – | – | –
O=C(N/N=C/c1c(O)ccc2ccccc12)c1ccncc1 | – | – | 500 | – | – | –
C/C(=N\NC(=S)Nc1ccccc1)c1ccccn1 | 2.99 | 0.9 | 1 | 35 | 33 | Non-toxic
CCNC(=S)N/N=C(\c1ccccc1)c1ccccn1 | – | 3.1 | 3 | – | – | –
